Several values for one entry are separate records, joined by “and”; a condition that tells them apart may be missing. Equal values may be shown once. Where a name gives a salt, the structure may show the parent alone.
Legend:
Human recombinant MMP1 = biological target: T1, Human recombinant MMP1 (Homo sapiens, UniProt P03956); assay: MMP1 (Collagenase-1) inhibition, 14C collagen release; type: biochemical; conditions: 35° C., 5 hours; read-out: MMP-1 inhibitory activity, IC50
T1 sequence (P03956 100-469): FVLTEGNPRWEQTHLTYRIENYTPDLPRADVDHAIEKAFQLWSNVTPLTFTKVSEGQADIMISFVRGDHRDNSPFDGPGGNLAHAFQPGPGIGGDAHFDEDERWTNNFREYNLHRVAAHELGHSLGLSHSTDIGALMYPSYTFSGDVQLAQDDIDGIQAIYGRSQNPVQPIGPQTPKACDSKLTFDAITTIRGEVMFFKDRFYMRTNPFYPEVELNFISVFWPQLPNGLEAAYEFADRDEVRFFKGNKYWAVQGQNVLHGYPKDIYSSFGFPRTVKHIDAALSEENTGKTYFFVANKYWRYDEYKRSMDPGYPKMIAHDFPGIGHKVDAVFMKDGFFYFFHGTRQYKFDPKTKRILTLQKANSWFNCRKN

MMP2 (Gelatinase A) = biological target: T2, MMP2 (Gelatinase A) (Homo sapiens, UniProt P08253); assay: MMP2 (Gelatinase A) inhibition, 14C gelatin release; type: biochemical; conditions: 37° C., 16 hours; read-out: MMP-2 inhibitory activity, IC50
T2 sequence (P08253 110-660): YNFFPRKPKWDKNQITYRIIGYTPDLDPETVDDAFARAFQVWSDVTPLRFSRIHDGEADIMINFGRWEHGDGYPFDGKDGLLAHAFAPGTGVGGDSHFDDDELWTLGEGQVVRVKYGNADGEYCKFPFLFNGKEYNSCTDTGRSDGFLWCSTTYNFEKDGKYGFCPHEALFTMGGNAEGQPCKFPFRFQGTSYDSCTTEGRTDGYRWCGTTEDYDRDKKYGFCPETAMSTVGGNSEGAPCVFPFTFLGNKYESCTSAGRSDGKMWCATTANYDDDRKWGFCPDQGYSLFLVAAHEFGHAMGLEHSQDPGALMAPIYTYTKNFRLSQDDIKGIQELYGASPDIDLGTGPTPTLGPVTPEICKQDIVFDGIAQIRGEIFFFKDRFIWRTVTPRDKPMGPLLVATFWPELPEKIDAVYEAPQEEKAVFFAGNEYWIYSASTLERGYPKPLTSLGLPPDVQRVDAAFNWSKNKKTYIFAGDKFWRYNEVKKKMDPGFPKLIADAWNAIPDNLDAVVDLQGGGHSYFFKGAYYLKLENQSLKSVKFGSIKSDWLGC

Human recombinant MMP7 = biological target: T3, Human recombinant MMP7 (Homo sapiens, UniProt P09237); assay: MMP7 (Matrilysin) inhibition, 14C casein release; type: biochemical; conditions: 37° C., 16 hours; read-out: MMP-7 inhibitory activity, IC50
T3 sequence (P09237 95-267): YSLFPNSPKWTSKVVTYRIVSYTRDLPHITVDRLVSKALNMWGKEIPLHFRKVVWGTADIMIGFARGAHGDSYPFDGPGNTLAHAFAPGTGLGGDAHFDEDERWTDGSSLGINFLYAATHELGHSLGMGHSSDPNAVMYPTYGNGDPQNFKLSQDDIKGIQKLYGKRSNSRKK

[1] = test system: MDA-MB-231 human breast cancer cells; assay: Membrane Invasion Culture System (MICS) chemo-invasion assay; type: cell-based; conditions: 24 hours, + = increased invasiveness
In short: (§1)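 Fifty thousand cells were seeded above a 35 μm laminin/collagen IV/gelatin barrier on a 10 μm-pore filter, with serum-free RPMI plus 50% fibroblast-conditioned medium below as chemoattractant. Compound at 1, 10 or 25 μg/ml, or DMSO vehicle, was present for 24 h. Invaded cells were collected, Wright-stained and counted over 5 fields.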

[2] = test system: Ark human myeloma cancer cells; assay: as above; type: cell-based; conditions: 24 hours, + = increased invasiveness
In short: as §1

[3] = test system: Arp-1 human myeloma cancer cells; assay: as above; type: cell-based; conditions: 24 hours, + = increased invasiveness
In short: as §1

[4] = test system: PC-3 ML human prostate cancer cells; assay: as above; type: cell-based; conditions: 24 hours, + = increased invasiveness
In short: as §1

[5] = test system: C8161 human melanoma cells; assay: as above; type: cell-based; conditions: 24 hours, + = increased invasiveness
In short: as §1

Human recombinant MMP9 = Human recombinant MMP9 (Homo sapiens, UniProt P14780); assay: MMP9 (Gelatinase B) inhibition, 14C gelatin release; type: biochemical; conditions: 37° C., 16 hours; read-out: MMP-9 inhibitory activity, IC50
Human recombinant MMP9, sequence (P14780 94-707): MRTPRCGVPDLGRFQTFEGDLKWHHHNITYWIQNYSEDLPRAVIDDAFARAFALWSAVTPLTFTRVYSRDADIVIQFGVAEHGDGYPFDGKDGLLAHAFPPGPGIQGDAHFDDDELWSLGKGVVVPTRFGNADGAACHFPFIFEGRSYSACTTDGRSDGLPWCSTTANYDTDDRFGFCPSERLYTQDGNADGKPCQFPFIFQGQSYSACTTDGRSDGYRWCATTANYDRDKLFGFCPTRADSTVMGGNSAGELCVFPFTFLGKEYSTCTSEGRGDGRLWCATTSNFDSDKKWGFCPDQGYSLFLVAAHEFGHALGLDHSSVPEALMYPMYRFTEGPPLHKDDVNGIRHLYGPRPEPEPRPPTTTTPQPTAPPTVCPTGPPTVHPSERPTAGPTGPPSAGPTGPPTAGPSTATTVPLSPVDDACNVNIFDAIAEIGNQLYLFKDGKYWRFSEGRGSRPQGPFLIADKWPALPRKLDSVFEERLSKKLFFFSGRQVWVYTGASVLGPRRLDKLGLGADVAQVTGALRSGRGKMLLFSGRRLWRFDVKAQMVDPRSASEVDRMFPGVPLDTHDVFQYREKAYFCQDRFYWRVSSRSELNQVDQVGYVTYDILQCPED

Human recombinant MMP3 = Human recombinant MMP3 (Homo sapiens, UniProt P08254); assay: MMP3 (Stromelysin 1) inhibition, 14C casein release; type: biochemical; conditions: 37° C., 16 hours; read-out: MMP-3 inhibitory activity, IC50
Human recombinant MMP3, sequence (P08254 100-477): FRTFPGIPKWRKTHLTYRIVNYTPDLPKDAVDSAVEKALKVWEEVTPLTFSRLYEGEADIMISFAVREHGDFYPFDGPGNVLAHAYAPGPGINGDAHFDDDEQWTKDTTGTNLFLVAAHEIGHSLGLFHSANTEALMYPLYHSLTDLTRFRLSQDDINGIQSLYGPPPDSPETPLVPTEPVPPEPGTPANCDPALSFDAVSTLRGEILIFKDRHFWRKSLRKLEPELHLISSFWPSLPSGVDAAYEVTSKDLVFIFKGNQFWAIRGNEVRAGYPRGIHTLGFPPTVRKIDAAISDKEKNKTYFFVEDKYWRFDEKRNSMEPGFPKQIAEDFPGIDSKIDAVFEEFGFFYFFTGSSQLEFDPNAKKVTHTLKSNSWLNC

Human recombinant MMP14 = Human recombinant MMP14 (Homo sapiens, UniProt P50281); assay: MMP14 (MTI-MMP) inhibition, 14C collagen release; type: biochemical; conditions: 35° C., 15 hours; read-out: MMP-14 inhibitory activity, IC50
[6] = test system: RPMI-8226 human myeloma cancer cells; assay: Membrane Invasion Culture System (MICS) chemo-invasion assay; type: cell-based; conditions: 24 hours, + = increased invasiveness
In short: as §1

Row | SMILES | IC50 (Human recombinant MMP1) [µM] | IC50 (MMP2 (Gelatinase A)) [µM] | IC50 (Human recombinant MMP7) | IC50 (Human recombinant MMP9) [µM] | IC50 (Human recombinant MMP3) [µM] | IC50 (Human recombinant MMP14) [µM] | percent inhibition, MDA-MB-231 (Breast) ([1]; 1 ug/mL) | percent inhibition, MDA-MB-231 (Breast) ([1]; 10 ug/mL) | percent inhibition, MDA-MB-231 (Breast) ([1]; 25 ug/mL) | percent inhibition, ARK ([2]; 1 ug/mL) | percent inhibition, ARK ([2]; 10 ug/mL) | percent inhibition, ARK ([2]; 25 ug/mL) | percent inhibition, PC-3 ML (Prostrate) ([4]; 1 ug/mL) | percent inhibition, PC-3 ML (Prostrate) ([4]; 10 ug/mL) | percent inhibition, PC-3 ML (Prostrate) ([4]; 25 ug/mL) | percent inhibition, C8161 (Melanoma) ([5]; 10 ug/mL) | percent inhibition, C8161 (Melanoma) ([5]; 25 ug/mL) | percent inhibition, RPMI-8226 (Multiple Myeloma) ([6]; 1 ug/mL) | percent inhibition, RPMI-8226 (Multiple Myeloma) ([6]; 10 ug/mL) | percent inhibition, RPMI-8226 (Multiple Myeloma) ([6]; 25 ug/mL) | also measured
1 | CC(C)Nc1ccc2c(c1O)C(=O)C1=C(O)C3(O)C(=O)C(C(N)=O)=C(O)C(N(C)C)C3C(O)C1C2C (stereo not shown) [Compound 3, 9-Isopropylamino-6-deoxy-5-hydroxytetracycline H2SO4] | > 1000 | > 1000 | > 1000 µM | 136 | 304 | 216 | +8% | +2% | 12% | +11% | +6% | +15% | 3% | +1% | 25^B percent | 22^B percent | 15^B percent |  |  |  | percent inhibition, ARP-1 ([3]; 1 ug/mL): +13%; percent inhibition, ARP-1 ([3]; 10 ug/mL): +1%; percent inhibition, ARP-1 ([3]; 25 ug/mL): +16%; percent inhibition, C8161 (Melanoma) ([5]; 1 ug/mL): 30^B percent
2 | CC1c2ccc(N=[N+]=[N-])c(O)c2C(=O)C2=C(O)C3(O)C(=O)C(C(N)=O)=C(O)C(N(C)C)C3C(O)C21 (stereo not shown) [Compound 6, 9-Azido-6-deoxy-5-hydroxytetracycline H2SO4] | 394 | 135 | > 1000 µM and < 1000 µM | 83 | 241 | 56 |  |  | 27^B percent and 42^B percent | 12% | 0% | 8% | 21% and 13% | 26% and 32^B percent | 41^B percent and 30^B percent | 33^B percent and 21^B percent | 32^B percent and 33^B percent |  |  |  | 
3 | CN(C)c1cc([N+]#N)c(O)c2c1CC1CC3C(N(C)C)C(O)=C(C(N)=O)C(=O)C3(O)C(O)=C1C2=O (stereo not shown) [Compound 9, 7-dimethylamino-6-demethyl-6-deoxytetracycline-9-diazonium H2SO4 HCL] | 372 | 337 | 507 µM | 28 | 154 | 29 |  |  |  | 17^B percent | 24^B percent | 20^B percent |  |  |  |  |  | 21^B percent | 24^B percent | 28^B percent | percent inhibition, ARP-1 ([3]; 1 ug/mL): +14%; percent inhibition, ARP-1 ([3]; 10 ug/mL): +21^B percent; percent inhibition, ARP-1 ([3]; 25 ug/mL): 7%

Now from value to compound, other results behind:

Row | IC50 (Human recombinant MMP1) [µM] | IC50 (MMP2 (Gelatinase A)) [µM] | IC50 (Human recombinant MMP7) | IC50 (Human recombinant MMP9) [µM] | IC50 (Human recombinant MMP3) [µM] | IC50 (Human recombinant MMP14) [µM] | SMILES | percent inhibition, MDA-MB-231 (Breast) ([1]; 1 ug/mL) | percent inhibition, MDA-MB-231 (Breast) ([1]; 10 ug/mL) | percent inhibition, MDA-MB-231 (Breast) ([1]; 25 ug/mL) | percent inhibition, ARK ([2]; 1 ug/mL) | percent inhibition, ARK ([2]; 10 ug/mL) | percent inhibition, ARK ([2]; 25 ug/mL) | percent inhibition, PC-3 ML (Prostrate) ([4]; 1 ug/mL) | percent inhibition, PC-3 ML (Prostrate) ([4]; 10 ug/mL) | percent inhibition, PC-3 ML (Prostrate) ([4]; 25 ug/mL) | percent inhibition, C8161 (Melanoma) ([5]; 10 ug/mL) | percent inhibition, C8161 (Melanoma) ([5]; 25 ug/mL) | percent inhibition, RPMI-8226 (Multiple Myeloma) ([6]; 1 ug/mL) | percent inhibition, RPMI-8226 (Multiple Myeloma) ([6]; 10 ug/mL) | percent inhibition, RPMI-8226 (Multiple Myeloma) ([6]; 25 ug/mL) | also measured
4 | > 1000 | 599 | 388 µM | > 1000 | 232 | > 1000 | CC(=O)Nc1cc(N(C)C)c2c(c1O)C(=O)C1=C(O)C3(O)C(=O)C(C(N)=O)=C(O)C(N(C)C)C3CC1C2 (stereo not shown) [Compound 8, 9-Acetamido-7-dimethylamino-6-demethyl-6-deoxytetracycline H2SO4] | +10% | +5% | +13% |  |  |  | 0% | +4% | 0% | 41^B percent | 40^B percent | 11% | 3% | +2% | percent inhibition, C8161 (Melanoma) ([5]; 1 ug/mL): 13^B percent
5 | 499 | 484 | > 1000 µM | 41 | 96 | 53 | CN(C)c1cc(N=[N+]=[N-])c(O)c2c1CC1CC3C(N(C)C)C(O)=C(C(N)=O)C(=O)C3(O)C(O)=C1C2=O (stereo not shown) [Compound 10, 9-Azido-7-demethylamino-6-demethyl-6-deoxytetracycline H2SO4] |  |  |  | 6% | +7% | 1% |  |  |  | 22% and 28^B percent |  | 3% | 5% | 29^B percent | 
6 | 126 | 48 | > 1000 µM | 64 | 206 | 14 | CN(C)C1C(O)=C(C(N)=O)C(=O)C2(O)C(O)=C3C(=O)c4c(O)c(Br)cc(Br)c4CC3CC12 (stereo not shown) [Compound 13, 7,9-Dibromo-6-demethyl-6-deoxytetracycline H2SO4] | 4% | 0% | +9% | 2% | +7% | 1% | 8% | 23^B percent | 13% | 12% | 14% | +11% | +13% | +12% | percent inhibition, C8161 (Melanoma) ([5]; 1 ug/mL): 6%
